Measured values from PubChem BioAssay AID1919016 (Molecular Pharmacology Branch, DTP, NCI, 2023).
“And” between values parts separate entries of the source, which are not always exact repeats. Equal entries are not always repeated.

Test system: NCI-H196 complex spheroid growth, percent test/control
Experiment: Anticancer human tumor NCI-H196 cell line growth inhibition [AhR];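 also: seven days of drug exposure starting three days after plating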;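 as to viability, T/C: 100% = DMSO vehicle control wells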
Conditions: for viability, T/C: stronger effect = lower value
Procedure, shortened: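 Complex tumor spheroids co-cultured with HUVEC and human MSC stroma; AhR antagonists tested in combination with standard-of-care and investigational agents. Top concentration at or near clinical Cmax (else 10 microM), half-log dilutions; growth expressed as percent test/control.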

[1] = curve of first compound, second compound 0.1 µM
[2] = curve of first compound, second compound 0.316 µM
[3] = curve of first compound, second compound 1 µM
[4] = curve of first compound, second compound 3.16 µM
[5] = curve of first compound, second compound 10 µM
[6] = second compound 0.1 µM, first compound 0.0316 µM
[7] = second compound 0.1 µM, first compound 0.1 µM
[8] = second compound 0.1 µM, first compound 0.316 µM
[9] = second compound 0.1 µM, first compound 1 µM
[10] = second compound 0.1 µM, first compound 3.16 µM
[11] = second compound 0.1 µM, first compound 10 µM
[12] = second compound 0.316 µM, first compound 0.0316 µM
[13] = second compound 0.316 µM, first compound 0.1 µM
[14] = second compound 0.316 µM, first compound 0.316 µM
[15] = second compound 0.316 µM, first compound 1 µM
[16] = second compound 0.316 µM, first compound 3.16 µM
[17] = second compound 0.316 µM, first compound 10 µM
[18] = second compound 1 µM, first compound 0.0316 µM
[19] = second compound 1 µM, first compound 0.1 µM
[20] = second compound 1 µM, first compound 0.316 µM
[21] = second compound 1 µM, first compound 1 µM
[22] = second compound 1 µM, first compound 3.16 µM
[23] = second compound 1 µM, first compound 10 µM
[24] = second compound 3.16 µM, first compound 0.0316 µM
[25] = second compound 3.16 µM, first compound 0.1 µM
[26] = second compound 3.16 µM, first compound 0.316 µM
[27] = second compound 3.16 µM, first compound 1 µM
[28] = second compound 3.16 µM, first compound 3.16 µM
[29] = second compound 3.16 µM, first compound 10 µM
[30] = second compound 10 µM, first compound 0.0316 µM
[31] = second compound 10 µM, first compound 0.1 µM
[32] = second compound 10 µM, first compound 0.316 µM
[33] = second compound 10 µM, first compound 1 µM
[34] = second compound 10 µM, first compound 3.16 µM
[35] = second compound 10 µM, first compound 10 µM

Structure (SMILES) | IC50 [1] [µM] | IC50 [2] [µM] | IC50 [3] [µM] | IC50 [4] [µM] | IC50 [5] [µM] | viability, T/C [6] [%] | viability, T/C [7] [%] | viability, T/C [8] [%] | viability, T/C [9] [%] | viability, T/C [10] [%] | viability, T/C [11] [%] | viability, T/C [12] [%] | viability, T/C [13] [%] | viability, T/C [14] [%] | viability, T/C [15] [%] | viability, T/C [16] [%] | viability, T/C [17] [%] | viability, T/C [18] [%] | viability, T/C [19] [%] | viability, T/C [20] [%] | further results
Cc1cncc(-c2nc(NCCc3c[nH]c4ccccc34)c3ncn(C(C)C)c3n2)c1 |  |  |  |  |  |  |  |  |  |  |  |  |  |  |  |  |  |  |  |  | viability, T/C (compound 0.1 µM): 96.5% [middle of 20 runs]; viability, T/C (compound 0.316 µM): 99% [middle of 20 runs]; viability, T/C (compound 1 µM): 101% [middle of 20 runs]; viability, T/C (compound 3.16 µM): 106% [middle of 20 runs]; IC50 (compound alone, run of 08/16/2022): > 10 µM
O=C(c1cc(Cc2n[nH]c(=O)c3ccccc23)ccc1F)N1CCN(C(=O)C2CC2)CC1 + Cc1ccccc1N=Nc1ccc(NC(=O)c2ccnn2C)c(C)c1 | > 10 | > 10 | > 10 | > 10 | > 10 | 109 | 101 | 107 | 94.1 | 91.4 | 102 | 99.5 | 103 | 102 | 93.1 | 108 | 102 | 99.4 | 107 | 98.3 | viability, T/C [21]: 99.1%; viability, T/C [22]: 100%; viability, T/C [23]: 93.6%; viability, T/C [24]: 90.8%; viability, T/C [25]: 105%; viability, T/C [26]: 95.9%; viability, T/C [27]: 108%; viability, T/C [28]: 96.9%; viability, T/C [29]: 101%; viability, T/C [30]: 87.2%; viability, T/C [31]: 90.1%; viability, T/C [32]: 99.1%; viability, T/C [33]: 98.8%; viability, T/C [34]: 103%; viability, T/C [35]: 83.4%
Nc1ccn(C2OC(CO)C(O)C2(F)F)c(=O)n1 (configuration not stated) |  |  |  |  |  |  |  |  |  |  |  |  |  |  |  |  |  |  |  |  | viability, T/C (compound 0.0316 µM): 72.3% and 95.5% and 90.8%; viability, T/C (compound 0.1 µM): 57.2% and 87.9% and 86.6%; viability, T/C (compound 0.316 µM): 46.1% and 58.9% and 65.1%; viability, T/C (compound 1 µM): 50.2% and 56.8% and 62.2%; viability, T/C (compound 3.16 µM): 61.4% and 61.8% and 66.2%; viability, T/C (compound 10 µM): 56.5% and 68.2% and 66.8%; IC50 (curve of compound): 10 µM and > 10 µM
COc1cccc2c1C(=O)c1c(O)c3c(c(O)c1C2=O)CC(O)(C(=O)CO)CC3OC1CC(N)C(O)C(C)O1 (configuration not stated) + CC(CO)NC(=O)c1cc(-c2ccc(Cl)cc2)nn(-c2cnn(C)c2)c1=O | 0.943 | 1.08 | 0.967 | 0.895 | 0.732 | 109 | 105 | 85.6 | 52.8 | 1.78 | 0.87 | 102 | 116 | 100 | 53.8 | 1.55 | 1.77 | 110 | 116 | 101 | viability, T/C [21]: 49.6%; viability, T/C [22]: 1.06%; viability, T/C [23]: 2.36%; viability, T/C [24]: 113%; viability, T/C [25]: 110%; viability, T/C [26]: 104%; viability, T/C [27]: 44.4%; viability, T/C [28]: 0.77%; viability, T/C [29]: 1.04%; viability, T/C [30]: 119%; viability, T/C [31]: 122%; viability, T/C [32]: 89.9%; viability, T/C [33]: 36.6%; viability, T/C [34]: 0.56%; viability, T/C [35]: 2.67%
NS(=O)(=O)OCC1CC(n2ccc3c(NC4CCc5ccccc54)ncnc32)CC1O (configuration not stated) + CC(CO)NC(=O)c1cc(-c2ccc(Cl)cc2)nn(-c2cnn(C)c2)c1=O | > 10 | > 10 | > 10 | > 10 | > 10 | 85.4 | 79.8 | 67.1 | 61.3 | 62.9 | 60.2 | 82.8 | 85.2 | 68.8 | 59.2 | 52.5 | 55.7 | 87.2 | 74.4 | 67.6 | viability, T/C [21]: 57.5%; viability, T/C [22]: 61.2%; viability, T/C [23]: 51.4%; viability, T/C [24]: 81.4%; viability, T/C [25]: 83.7%; viability, T/C [26]: 71.1%; viability, T/C [27]: 56.4%; viability, T/C [28]: 62.9%; viability, T/C [29]: 55.4%; viability, T/C [30]: 90.7%; viability, T/C [31]: 96.9%; viability, T/C [32]: 83.8%; viability, T/C [33]: 59.2%; viability, T/C [34]: 54%; viability, T/C [35]: 52.4%
